Experimental data published in publication PMC11912475 (Journal of Medicinal Chemistry, 2025).

What was measured:
[1] = target: GluN1-GluN2C NMDAR subtype (Homo sapiens, UniProt Q05586+Q14957); assay: FLIPR/Ca2+ assay, NMDAR GluN1-GluN2C subtype in CHO cells; format: cell-based; details: CHO cells, 10 μM L-glutamate and 10 μM glycine; n.d. = 50% of inhibition could not be reached at the highest concentration used
Description: (§1) These compounds were assessed for their effects on specific heterodimeric NMDAR subtypes stably overexpressed in Chinese Hamster Ovary (CHO) cells. The subtypes tested included GluN1-GluN2A, GluN1-GluN2B, GluN1-GluN2C, and GluN1-GluN2D. CHO cells expressing each of the four NMDAR subtypes were incubated with 10 μM L-glutamate, a concentration known to elicit maximal Ca^2+ influx, serving as the stimulus. Intracellular Ca^2+ levels were subsequently measured to determine the extent of NMDAR activation.
(§2) Assay buffer composition was 145 mM NaCl, 5 mM KCl, 2 mM CaCl2, 1 g/Liter D-(+)-glucose, and 20 mM HEPES (pH 7.3 adjusted with NaOH). Cells were plated at a density of 15.000/well in 384 black/clear bottom plates. […] Cells were kept at 30 °C in 5% CO2 incubator for 24 h. Cells were preloaded for 1 h with 2 μM Fluo-4 Ca^2+-sensitive probe, simultaneously with 2.5 mM probenecid, an inhibitor of nonspecific anion transport, and 500 μM ketamine to avoid cytotoxicity. […] Intracellular Ca^2+ level was monitored by FLIPR (excitation wavelength at 470–495 nm, emission wavelength at 515–575 nm) for 10 s before and 5 min after the addition of test items. All test items, including L-glutamate and glycine, were added simultaneously. […] FLIPR data were normalized as 100%, in the presence of 10 μM L-glutamate and 10 μM glycine, while as 0%, in the presence of assay buffer. […] Then, data were normalized by Excel 2013 (Microsoft Office) software, using wells added with 10 μM L-glutamate plus 10 μM glycine (column 23) as high control, and wells added with assay buffer only (column 24) as low control. To assess plate quality, Z′ calculations were performed in Excel. Z′ was calculated according to following equation: Z′ = 1–3(σh + σl)/|μh – μL| where μ and σ are the means and the standard deviations of the means of high (h) and low (l) controls, respectively. Compound concentration–response curves were plotted by Prism 8 GraphPad software, in the different experimental conditions (see Supporting Information). Data were analyzed using least-squares regression fitting, to fit data to a standard four parameters logistic equation using GraphPad Prism10. This regression fitting allowed the calculation of pIC50 and the corresponding SEM.

[2] = target: T1, Norepinephrine transporter NET (Homo sapiens, UniProt P23975); assay: Radioligand displacement binding assay, [125I]RTI-55, NET
T1 construct: host or cells: MDCK

Muscarinic M5 = target: T2, Muscarinic M5 (Homo sapiens, UniProt P08912); assay: Radioligand displacement binding assay, [3H]N-methylscopolamine, M5
T2 construct: host or cells: CHO-K1
T2 sequence (P08912 1-532): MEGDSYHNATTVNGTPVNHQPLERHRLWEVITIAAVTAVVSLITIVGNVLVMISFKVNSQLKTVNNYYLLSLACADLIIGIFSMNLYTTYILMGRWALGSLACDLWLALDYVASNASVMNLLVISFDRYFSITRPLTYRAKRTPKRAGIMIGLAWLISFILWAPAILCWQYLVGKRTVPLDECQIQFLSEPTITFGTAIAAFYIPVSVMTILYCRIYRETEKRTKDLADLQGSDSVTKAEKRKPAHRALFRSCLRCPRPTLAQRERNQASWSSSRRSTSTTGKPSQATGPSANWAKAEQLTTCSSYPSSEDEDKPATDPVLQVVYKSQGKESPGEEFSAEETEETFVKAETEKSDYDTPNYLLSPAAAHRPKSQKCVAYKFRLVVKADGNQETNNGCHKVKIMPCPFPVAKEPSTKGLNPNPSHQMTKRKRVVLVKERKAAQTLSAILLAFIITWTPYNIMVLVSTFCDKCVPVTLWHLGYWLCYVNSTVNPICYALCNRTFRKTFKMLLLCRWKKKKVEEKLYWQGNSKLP

[3] = target: T3, GluN1-GluN2B NMDAR subtype (Homo sapiens, UniProt Q05586+Q13224); assay: FLIPR/Ca2+ assay, NMDAR GluN1-GluN2B subtype in CHO cells; format: cell-based; details: CHO cells, 10 μM L-glutamate and 10 μM glycine; n.d. = 50% of inhibition could not be reached at the highest concentration used
T3 construct: host or cells: NR1-2B-CHO cells, constitutive expression
Description: as §1, §2

Serotonin 5-HT2C = target: T4, Serotonin 5-HT2C (Homo sapiens, UniProt P28335); assay: Radioligand displacement binding assay, [3H]mesulergine, 5-HT2C
T4 construct: host or cells: CHO-K1
T4 sequence (P28335 33-458): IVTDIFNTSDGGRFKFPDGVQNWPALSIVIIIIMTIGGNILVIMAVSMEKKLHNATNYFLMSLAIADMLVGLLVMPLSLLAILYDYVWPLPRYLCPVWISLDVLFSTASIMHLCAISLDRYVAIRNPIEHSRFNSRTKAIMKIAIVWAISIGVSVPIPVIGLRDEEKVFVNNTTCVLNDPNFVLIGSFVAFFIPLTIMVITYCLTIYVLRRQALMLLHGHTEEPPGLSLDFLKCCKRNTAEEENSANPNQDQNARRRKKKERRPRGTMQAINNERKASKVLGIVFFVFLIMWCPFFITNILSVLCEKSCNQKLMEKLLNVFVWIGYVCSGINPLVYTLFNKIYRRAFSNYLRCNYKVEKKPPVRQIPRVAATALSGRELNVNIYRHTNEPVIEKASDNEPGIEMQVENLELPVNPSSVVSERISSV

Sigma σ1 = target: T5, Sigma σ1 (Homo sapiens, UniProt Q99720); assay: Radioligand displacement binding assay, [3H]pentazocine, sigma σ1
T5 construct: Sigma σ1; Source: Human Jurkat cells; host or cells: Jurkat

[4] = system: Glutamate, NMDA, Phencyclidine binding site; assay: Radioligand displacement binding assay, [3H]TCP, NMDA; parameters: species or system Wistar rat
[5] = target: GluN1-GluN2D NMDAR subtype (Homo sapiens, UniProt O15399+Q05586); assay: FLIPR/Ca2+ assay, NMDAR GluN1-GluN2D subtype in CHO cells; format: cell-based; details: CHO cells, 10 μM L-glutamate and 10 μM glycine; n.d. = 50% of inhibition could not be reached at the highest concentration used
Description: as §1, §2

Serotonin 5-HT1A = target: T6, Serotonin 5-HT1A (Homo sapiens, UniProt P08908); assay: Radioligand displacement binding assay, [3H]8-OH-DPAT, 5-HT1A
T6 construct: host or cells: CHO-K1
T6 sequence (P08908 1-422): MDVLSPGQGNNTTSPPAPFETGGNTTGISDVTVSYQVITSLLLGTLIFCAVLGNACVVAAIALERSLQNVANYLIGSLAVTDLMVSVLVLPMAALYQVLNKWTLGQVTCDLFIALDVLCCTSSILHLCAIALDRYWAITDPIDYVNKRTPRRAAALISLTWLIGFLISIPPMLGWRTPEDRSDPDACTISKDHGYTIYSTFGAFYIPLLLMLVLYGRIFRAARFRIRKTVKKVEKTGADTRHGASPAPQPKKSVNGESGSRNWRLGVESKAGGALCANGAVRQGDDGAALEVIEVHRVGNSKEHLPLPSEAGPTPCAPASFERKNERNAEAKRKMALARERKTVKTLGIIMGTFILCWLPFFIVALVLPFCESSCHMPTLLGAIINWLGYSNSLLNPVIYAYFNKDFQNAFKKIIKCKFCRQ

Histamine H1 = target: T7, Histamine H1 (Homo sapiens, UniProt P35367); assay: Radioligand displacement binding assay, [3H]pyrilamine, H1
T7 construct: host or cells: CHO-K1

[6] = target: GluN1-GluN2A NMDAR subtype (Homo sapiens, UniProt Q05586+Q12879); assay: FLIPR/Ca2+ assay, NMDAR GluN1-GluN2A subtype in CHO cells; format: cell-based; details: CHO cells, 10 μM L-glutamate and 10 μM glycine; n.d. = 50% of inhibition could not be reached at the highest concentration used
Description: as §1, §2

Serotonin 5-HT5A = target: T8, Serotonin 5-HT5A (Homo sapiens, UniProt P47898); assay: Radioligand displacement binding assay, [3H]LSD, 5-HT5A
T8 construct: host or cells: CHO-K1

[7] = target: T9, Serotonin transporter SERT (Homo sapiens, UniProt P31645); assay: Radioligand displacement binding assay, [3H]paroxetine, SERT
T9 construct: host or cells: HEK-293

Serotonin 5-HT2A = target: T10, Serotonin 5-HT2A (Homo sapiens, UniProt P28223); assay: Radioligand displacement binding assay, [3H]ketanserin, 5-HT2A
T10 construct: host or cells: CHO-K1

Serotonin 5-HT7 = target: T11, Serotonin 5-HT7 (Homo sapiens, UniProt P34969); assay: Radioligand displacement binding assay, [3H]LSD, 5-HT7
T11 construct: host or cells: CHO-K1

μ opioid receptor (MOP) = target: T12, μ opioid receptor (MOP) (Homo sapiens, UniProt P35372); assay: biochemical; format: binding; details: read-out: % inhibition of binding, MOP
T12 construct: host or cells: CHO-K1
T12 sequence (P35372 whole entry): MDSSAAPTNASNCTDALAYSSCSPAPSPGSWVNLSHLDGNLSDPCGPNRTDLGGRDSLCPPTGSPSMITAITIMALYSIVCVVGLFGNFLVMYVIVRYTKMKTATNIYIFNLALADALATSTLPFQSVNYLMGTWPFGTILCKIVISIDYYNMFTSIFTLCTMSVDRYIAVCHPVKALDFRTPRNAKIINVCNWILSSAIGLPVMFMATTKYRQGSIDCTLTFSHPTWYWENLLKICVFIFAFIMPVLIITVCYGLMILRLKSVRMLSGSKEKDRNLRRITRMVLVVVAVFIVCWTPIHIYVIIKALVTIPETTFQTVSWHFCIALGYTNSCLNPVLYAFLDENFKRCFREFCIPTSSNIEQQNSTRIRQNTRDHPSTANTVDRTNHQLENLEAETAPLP

T11 sequence (P34969 whole entry): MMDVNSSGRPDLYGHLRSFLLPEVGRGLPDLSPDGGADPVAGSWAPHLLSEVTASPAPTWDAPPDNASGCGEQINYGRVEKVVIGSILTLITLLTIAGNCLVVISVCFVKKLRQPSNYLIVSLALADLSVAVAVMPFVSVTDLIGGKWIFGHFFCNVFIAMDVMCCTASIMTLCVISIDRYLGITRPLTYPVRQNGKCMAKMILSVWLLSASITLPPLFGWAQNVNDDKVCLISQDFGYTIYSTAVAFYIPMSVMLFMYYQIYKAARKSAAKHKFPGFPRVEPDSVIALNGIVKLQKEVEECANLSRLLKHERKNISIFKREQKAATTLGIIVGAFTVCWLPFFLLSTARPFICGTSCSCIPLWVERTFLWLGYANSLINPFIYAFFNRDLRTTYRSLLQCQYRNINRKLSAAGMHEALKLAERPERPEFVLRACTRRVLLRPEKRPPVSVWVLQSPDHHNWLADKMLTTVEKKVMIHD
T10 sequence (P28223 whole entry): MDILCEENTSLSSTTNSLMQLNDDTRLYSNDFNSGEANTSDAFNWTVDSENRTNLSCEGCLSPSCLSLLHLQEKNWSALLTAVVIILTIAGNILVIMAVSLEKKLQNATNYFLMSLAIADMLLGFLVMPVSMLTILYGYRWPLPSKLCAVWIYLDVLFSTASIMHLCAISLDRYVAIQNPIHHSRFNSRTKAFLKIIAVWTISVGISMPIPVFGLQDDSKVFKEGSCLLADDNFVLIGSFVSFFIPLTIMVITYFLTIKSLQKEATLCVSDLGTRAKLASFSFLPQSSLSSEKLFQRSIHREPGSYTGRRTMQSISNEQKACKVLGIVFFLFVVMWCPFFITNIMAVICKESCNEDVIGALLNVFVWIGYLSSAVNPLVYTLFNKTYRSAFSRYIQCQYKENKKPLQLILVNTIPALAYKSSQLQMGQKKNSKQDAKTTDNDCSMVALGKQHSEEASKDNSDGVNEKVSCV
T5 sequence (Q99720 whole entry): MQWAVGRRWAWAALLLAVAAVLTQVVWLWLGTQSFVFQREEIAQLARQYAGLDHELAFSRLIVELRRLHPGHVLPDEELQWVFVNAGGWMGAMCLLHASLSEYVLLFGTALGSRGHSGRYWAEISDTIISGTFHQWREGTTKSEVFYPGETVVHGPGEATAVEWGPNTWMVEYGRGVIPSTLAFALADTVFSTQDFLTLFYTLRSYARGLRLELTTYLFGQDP
T8 sequence (P47898 whole entry): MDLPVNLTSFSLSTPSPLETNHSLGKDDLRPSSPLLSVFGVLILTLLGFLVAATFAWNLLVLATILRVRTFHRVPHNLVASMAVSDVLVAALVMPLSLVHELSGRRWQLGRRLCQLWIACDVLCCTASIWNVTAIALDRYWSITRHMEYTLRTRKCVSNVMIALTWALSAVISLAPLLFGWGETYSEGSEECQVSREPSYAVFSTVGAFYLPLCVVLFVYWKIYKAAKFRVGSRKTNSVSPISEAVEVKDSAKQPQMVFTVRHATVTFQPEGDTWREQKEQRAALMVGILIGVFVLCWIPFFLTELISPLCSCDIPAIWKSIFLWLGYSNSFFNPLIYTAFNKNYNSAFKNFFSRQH
T9 sequence (P31645 whole entry): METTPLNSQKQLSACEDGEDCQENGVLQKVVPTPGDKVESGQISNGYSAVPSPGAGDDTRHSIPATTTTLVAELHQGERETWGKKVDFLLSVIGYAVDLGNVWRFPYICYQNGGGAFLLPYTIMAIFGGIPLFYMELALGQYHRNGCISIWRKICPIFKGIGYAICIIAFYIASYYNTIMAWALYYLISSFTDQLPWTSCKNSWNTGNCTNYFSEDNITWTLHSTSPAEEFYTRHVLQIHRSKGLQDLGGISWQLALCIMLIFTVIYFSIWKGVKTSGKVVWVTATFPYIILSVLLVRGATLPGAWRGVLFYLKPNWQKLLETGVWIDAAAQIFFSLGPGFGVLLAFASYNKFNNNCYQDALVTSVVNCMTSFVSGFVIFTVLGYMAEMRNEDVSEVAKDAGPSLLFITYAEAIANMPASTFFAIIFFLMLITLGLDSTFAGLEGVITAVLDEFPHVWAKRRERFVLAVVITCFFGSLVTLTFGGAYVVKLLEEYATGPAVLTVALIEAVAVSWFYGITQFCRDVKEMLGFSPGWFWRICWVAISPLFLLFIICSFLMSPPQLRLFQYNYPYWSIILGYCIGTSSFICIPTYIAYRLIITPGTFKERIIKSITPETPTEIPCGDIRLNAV
T1 sequence (P23975 whole entry): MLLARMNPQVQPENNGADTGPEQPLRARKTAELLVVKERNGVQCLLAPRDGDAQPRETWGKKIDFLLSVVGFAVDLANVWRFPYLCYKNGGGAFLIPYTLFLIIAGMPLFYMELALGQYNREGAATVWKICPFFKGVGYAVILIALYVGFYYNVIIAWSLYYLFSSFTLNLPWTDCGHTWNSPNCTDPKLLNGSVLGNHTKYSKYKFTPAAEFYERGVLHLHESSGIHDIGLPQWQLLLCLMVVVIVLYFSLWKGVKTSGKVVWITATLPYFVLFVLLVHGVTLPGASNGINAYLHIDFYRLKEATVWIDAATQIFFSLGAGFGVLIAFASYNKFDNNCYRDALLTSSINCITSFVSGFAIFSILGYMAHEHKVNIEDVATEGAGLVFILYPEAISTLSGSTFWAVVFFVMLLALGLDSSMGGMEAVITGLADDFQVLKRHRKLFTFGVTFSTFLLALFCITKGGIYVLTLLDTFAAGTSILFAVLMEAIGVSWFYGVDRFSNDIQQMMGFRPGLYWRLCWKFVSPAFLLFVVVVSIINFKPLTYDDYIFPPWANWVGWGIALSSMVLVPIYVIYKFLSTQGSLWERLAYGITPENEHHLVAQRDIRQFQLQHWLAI
T7 sequence (P35367 whole entry): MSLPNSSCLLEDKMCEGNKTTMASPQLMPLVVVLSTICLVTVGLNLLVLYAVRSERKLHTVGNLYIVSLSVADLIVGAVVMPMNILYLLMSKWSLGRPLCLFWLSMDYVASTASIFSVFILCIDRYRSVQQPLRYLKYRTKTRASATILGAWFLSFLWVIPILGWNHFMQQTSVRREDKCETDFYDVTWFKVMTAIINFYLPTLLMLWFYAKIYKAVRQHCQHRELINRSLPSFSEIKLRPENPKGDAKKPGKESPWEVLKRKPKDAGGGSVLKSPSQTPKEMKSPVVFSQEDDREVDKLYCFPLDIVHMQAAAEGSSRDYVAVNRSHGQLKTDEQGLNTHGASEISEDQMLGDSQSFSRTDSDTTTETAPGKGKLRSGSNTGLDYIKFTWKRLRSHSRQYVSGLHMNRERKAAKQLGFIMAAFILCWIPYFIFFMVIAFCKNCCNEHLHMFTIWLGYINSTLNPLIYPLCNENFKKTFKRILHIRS
Sequence of GluN1-GluN2C NMDAR subtype (Q14957 20-1233, other chains not shown): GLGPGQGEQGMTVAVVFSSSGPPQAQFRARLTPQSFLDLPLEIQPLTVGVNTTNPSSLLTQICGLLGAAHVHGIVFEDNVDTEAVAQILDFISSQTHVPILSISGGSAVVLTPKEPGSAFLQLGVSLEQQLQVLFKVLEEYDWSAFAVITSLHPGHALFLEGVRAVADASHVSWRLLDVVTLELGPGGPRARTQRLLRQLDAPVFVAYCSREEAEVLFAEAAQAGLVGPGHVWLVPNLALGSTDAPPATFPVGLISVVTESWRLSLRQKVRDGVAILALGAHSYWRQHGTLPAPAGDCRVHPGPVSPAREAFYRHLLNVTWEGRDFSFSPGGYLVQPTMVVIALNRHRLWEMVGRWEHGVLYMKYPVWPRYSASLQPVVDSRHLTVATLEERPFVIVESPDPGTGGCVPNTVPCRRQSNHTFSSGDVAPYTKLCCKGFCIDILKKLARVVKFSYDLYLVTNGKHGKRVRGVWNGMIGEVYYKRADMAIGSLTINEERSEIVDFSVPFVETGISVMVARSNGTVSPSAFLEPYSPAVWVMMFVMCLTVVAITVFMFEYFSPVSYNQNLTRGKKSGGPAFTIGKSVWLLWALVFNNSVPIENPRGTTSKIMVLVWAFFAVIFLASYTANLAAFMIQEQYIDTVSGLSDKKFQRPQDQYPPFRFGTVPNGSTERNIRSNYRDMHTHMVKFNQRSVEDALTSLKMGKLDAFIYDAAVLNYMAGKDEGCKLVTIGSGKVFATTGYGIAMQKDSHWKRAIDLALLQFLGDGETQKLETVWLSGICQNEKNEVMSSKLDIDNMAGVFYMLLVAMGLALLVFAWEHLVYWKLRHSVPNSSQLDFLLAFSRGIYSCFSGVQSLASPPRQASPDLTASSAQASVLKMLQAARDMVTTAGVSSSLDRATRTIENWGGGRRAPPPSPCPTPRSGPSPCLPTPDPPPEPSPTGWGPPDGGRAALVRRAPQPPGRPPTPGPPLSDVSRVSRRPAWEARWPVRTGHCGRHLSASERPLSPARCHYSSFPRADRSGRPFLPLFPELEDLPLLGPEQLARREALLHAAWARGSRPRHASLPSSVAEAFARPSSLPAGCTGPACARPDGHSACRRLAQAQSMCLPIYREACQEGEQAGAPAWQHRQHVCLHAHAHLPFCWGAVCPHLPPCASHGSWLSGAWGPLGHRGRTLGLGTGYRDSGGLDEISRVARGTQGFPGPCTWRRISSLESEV

| Compound | pIC50 (mean ± SEM) GluN1-GluN2C [1] | inhibition at 1 µM [2] [%] | inhibition at 10 µM [2] [%] | inhibition at 1 µM (Muscarinic M5) [%] | inhibition at 10 µM (Muscarinic M5) [%] | pIC50 (mean ± SEM) GluN1-GluN2B [3] | inhibition at 0.3 µM (Serotonin 5-HT2C) [%] | inhibition at 3 µM (Serotonin 5-HT2C) [%] | inhibition at 0.3 µM (Sigma σ1) [%] | inhibition at 3 µM (Sigma σ1) [%] | % inhibition of binding, NMDA ([4]; 1 μM) [%] | pIC50 (mean ± SEM) GluN1-GluN2D [5] | inhibition at 0.3 µM (Serotonin 5-HT1A) [%] | inhibition at 3 µM (Serotonin 5-HT1A) [%] | inhibition at 10 µM (Histamine H1) [%] | inhibition at 30 µM (Histamine H1) [%] | pIC50 (mean ± SEM) GluN1-GluN2A [6] | inhibition at 1 µM (Serotonin 5-HT5A) [%] | inhibition at 10 µM (Serotonin 5-HT5A) [%] | inhibition at 1 µM [7] [%] | further results |
| --- | --- | --- | --- | --- | --- | --- | --- | --- | --- | --- | --- | --- | --- | --- | --- | --- | --- | --- | --- | --- | --- |
| CC[C@@H](O)C(C[C@H](C)N)(c1ccccc1)c1ccccc1 [(3R,6S)-DNML, (3R,6S)-6-amino-4,4-diphenylheptan-3-ol] | 5.1 ± 0.062 | 0 | 5 | 9 | 13 | 4.6 ± 0.062 | 3 | -1 | 17 | 61 | 12 | 4.9 ± 0.093 | 1 | -1 | 4 | 19 | 4.6 ± 0.077 | -1 | 16 | 29 | % inhibition of binding, SERT ([7]; 10 μM): displaced; inhibition at 10 µM ([7]; 10 μM): 65%; inhibition at 0.3 µM (Serotonin 5-HT2A): 6%; inhibition at 3 µM (Serotonin 5-HT2A): 9%; inhibition at 1 µM (Serotonin 5-HT7): 14%; inhibition at 10 µM (Serotonin 5-HT7): 12%; inhibition at 0.3 µM (μ opioid receptor (MOP)): -3%; inhibition at 3 µM (μ opioid receptor (MOP)): 26% |
| CC[C@@H](O)C(C[C@H](C)NC)(c1ccccc1)c1ccccc1 [(3R,6S)-NML, (3R,6S)-6-(methylamino)-4,4-diphenylheptan-3-ol] | 4.6 ± 0.046 | 10 | 14 | 11 | 46 | 4.5 ± 0.053 | -4 | 5 | 47 | 80 | 8 | 4.7 ± 0.057 | 5 | 11 | 6 | 43 | 4.4 ± 0.037 | -1 | 15 | 12 | % inhibition of binding, NMDA ([4]; 10 μM): 48%; inhibition at 10 µM ([7]; 10 μM): 45%; inhibition at 0.3 µM (Serotonin 5-HT2A): 0%; inhibition at 3 µM (Serotonin 5-HT2A): 4%; inhibition at 1 µM (Serotonin 5-HT7): 14%; inhibition at 10 µM (Serotonin 5-HT7): 28%; inhibition at 0.3 µM (μ opioid receptor (MOP)): 1%; inhibition at 3 µM (μ opioid receptor (MOP)): 29% |
